Active and inactive are the calls of the source. No cut-off for these calls is given here.

For orientation: IC50 means the point on the concentration scale where inhibition reaches its midpoint.

The species named for one test is Mus musculus. Nature of the test: Inhibition of LPS-induced preterm delivery in pregnant mouse model. The test is classed as functional, organism-based.
Conditions: not given
As for `CCc1cc2c(cc1Cn1c(C(=O)O)c(Cc3cccc(C(=O)O)c3)c(=O)c3cc(O)ccc31)OCO2`, the inhibition result was “Active”.

The next test has as its target T1, Endothelin-1 receptor (Homo sapiens, UniProt P25101).
T1 sequence (P25101 whole entry): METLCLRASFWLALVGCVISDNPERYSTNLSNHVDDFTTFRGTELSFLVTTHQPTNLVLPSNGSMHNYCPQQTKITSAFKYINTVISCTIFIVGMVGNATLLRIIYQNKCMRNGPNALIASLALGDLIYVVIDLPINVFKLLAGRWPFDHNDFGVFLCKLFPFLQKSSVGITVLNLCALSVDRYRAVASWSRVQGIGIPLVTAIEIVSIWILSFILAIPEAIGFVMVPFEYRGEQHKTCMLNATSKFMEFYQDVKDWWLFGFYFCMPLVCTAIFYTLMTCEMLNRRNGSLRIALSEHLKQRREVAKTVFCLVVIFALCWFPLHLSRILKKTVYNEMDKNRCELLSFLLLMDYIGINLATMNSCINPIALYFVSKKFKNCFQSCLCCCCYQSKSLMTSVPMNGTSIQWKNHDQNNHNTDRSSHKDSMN
Nature of the test: Displacement of [125I]ET1 from ETA receptor expressed in african green monkey CCL-81 cells monolayer. The test is classed as cell-based.
Conditions: not given
In general terms: In a radioligand displacement assay an active substance lowers the binding of a labelled ligand.
For `CCCCCOc1ccc2c(c1)c(=O)c(Cc1cccc(C(=O)O)c1)c(C(=O)O)n2Cc1cc2c(cc1CC)OCO2`, the half-maximal inhibitory concentration (IC50) came to 610 nM.
With `CCc1cc2c(cc1Cn1c(C(=O)O)c(Cc3cccc(C(=O)O)c3)c(=O)c3cc(OCC(=O)O)ccc31)OCO2`, the IC50 stood at 285 nM.
The same measure, in the same setting: the result for `CCCCOc1ccc2c(c1)c(=O)c(Cc1cccc(C(=O)O)c1)c(C(=O)O)n2Cc1cc2c(cc1CC)OCO2` reads 1.44 nM.
Still for that read-out and setting: next, `CCc1cc2c(cc1Cn1c(C(=O)O)c(Cc3cccc(C(=O)O)c3)c(=O)c3cc(OC(C)C)ccc31)OCO2`: 13.5 nM.
The molecule `CCc1cc2c(cc1Cn1c(C(=O)O)c(Cc3cccc(C(=O)O)c3)c(=O)c3cc(OCOC)ccc31)OCO2` came in with an IC50 of 24.4 nM.
`CCOc1ccc2c(c1)c(=O)c(Cc1cccc(C(=O)O)c1)c(C(=O)O)n2Cc1cc2c(cc1CC)OCO2`: the half-maximal inhibitory concentration (IC50) is 6.6 nM.
On to `CCc1cc2c(cc1Cn1c(C(=O)O)c(Cc3cccc(C(=O)O)c3)c(=O)c3cc(O)ccc31)OCO2`, for which the IC50 came to 38.9 nM.
On to `CCc1cc2c(cc1Cn1c(C(=O)O)c(Cc3cccc(C(=O)O)c3)c(=O)c3cc(OCC(C)C)ccc31)OCO2`, for which the half-inhibitory concentration (IC50) stood at 6.3 nM.
Regarding `CCCOc1ccc2c(c1)c(=O)c(Cc1cccc(C(=O)O)c1)c(C(=O)O)n2Cc1cc2c(cc1CC)OCO2`, the IC50 was 0.11 nM.
On the same count and under the same terms, the result for `CCc1cc2c(cc1Cn1c(C(=O)O)c(Cc3cccc(C(=O)O)c3)c(=O)c3cc(OC(C)CC)ccc31)OCO2` (stereo unspecified) reads 9.9 nM.
`CCc1cc2c(cc1Cn1c(C(=O)O)c(Cc3cccc(C(=O)O)c3)c(=O)c3cc(OCCCO)ccc31)OCO2` returned an IC50 of 7.4 nM.
As for `CCc1cc2c(cc1Cn1c(C(=O)O)c(Cc3cccc(C(=O)O)c3)c(=O)c3ccccc31)OCO2`, the IC50 came to 0.69 nM.
The same measure, in the same setting: next, `C=CCOc1ccc2c(c1)c(=O)c(Cc1cccc(C(=O)O)c1)c(C(=O)O)n2Cc1cc2c(cc1CC)OCO2`: 38.1 nM.
Take `CC(C)C[C@@H]1NC(=O)[C@@H](C(C)C)NC(=O)[C@@H]2CCCN2C(=O)C(CC(=O)O)NC(=O)[C@@H](Cc2c[nH]c3ccccc23)NC1=O` (single isomer, unassigned) [BQ-123]: the IC50 came out at 24.8 nM.
Still for that read-out and setting: the result for `CCc1cc2c(cc1Cn1c(C(=O)O)c(Cc3cccc(C(=O)O)c3)c(=O)c3cc(OCC4CC4)ccc31)OCO2` reads 116 nM.

The next test relates to Hamster. The test can be described thus: Antiinflammatory activity against cigarette smoke-induced lung inflammation in hamster model assessed as reduction in bronchoalveolar lavage fluid leukocytes. Particulars: Cricetinae. The test is classed as functional, organism-based.
Turning to `CCc1cc2c(cc1Cn1c(C(=O)O)c(Cc3cccc(C(=O)O)c3)c(=O)c3cc(O)ccc31)OCO2`, the inhibition result is “Active”.

The next test deals with T2, Endothelin receptor type B (Homo sapiens, UniProt P24530).
T2 sequence (P24530 whole entry): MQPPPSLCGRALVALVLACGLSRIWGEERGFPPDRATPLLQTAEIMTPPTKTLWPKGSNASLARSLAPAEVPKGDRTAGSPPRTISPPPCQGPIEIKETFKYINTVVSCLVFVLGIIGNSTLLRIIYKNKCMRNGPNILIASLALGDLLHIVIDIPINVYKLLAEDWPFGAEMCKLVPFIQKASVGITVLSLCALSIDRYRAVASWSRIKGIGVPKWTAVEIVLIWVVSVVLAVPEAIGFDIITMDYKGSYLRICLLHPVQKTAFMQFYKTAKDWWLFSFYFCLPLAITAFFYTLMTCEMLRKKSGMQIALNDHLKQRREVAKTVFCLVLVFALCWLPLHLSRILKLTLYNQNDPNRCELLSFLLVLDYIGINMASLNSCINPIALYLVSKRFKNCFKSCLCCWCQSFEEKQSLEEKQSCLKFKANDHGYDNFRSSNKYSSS
The test can be described thus: Displacement of [125I]ET1 from human ETB receptor expressed in membranes.
Conditions: not given
As to `CCc1cc2c(cc1Cn1c(C(=O)O)c(Cc3cccc(C(=O)O)c3)c(=O)c3cc(OCC(=O)O)ccc31)OCO2`, the IC50 turned out to be 1450 nM.
With `CCCCOc1ccc2c(c1)c(=O)c(Cc1cccc(C(=O)O)c1)c(C(=O)O)n2Cc1cc2c(cc1CC)OCO2`, the IC50 amounted to 548 nM.
Still for that read-out and setting: next, `CCc1cc2c(cc1Cn1c(C(=O)O)c(Cc3cccc(C(=O)O)c3)c(=O)c3cc(OC(C)C)ccc31)OCO2`: 677 nM.
Molecule `CCc1cc2c(cc1Cn1c(C(=O)O)c(Cc3cccc(C(=O)O)c3)c(=O)c3cc(OCOC)ccc31)OCO2` registered a half-inhibitory concentration (IC50) of 1030 nM.
The same measure, in the same setting: next, `CCOc1ccc2c(c1)c(=O)c(Cc1cccc(C(=O)O)c1)c(C(=O)O)n2Cc1cc2c(cc1CC)OCO2`: 3120 nM; `CCc1cc2c(cc1Cn1c(C(=O)O)c(Cc3cccc(C(=O)O)c3)c(=O)c3cc(O)ccc31)OCO2`: 15600 nM.
`CCc1cc2c(cc1Cn1c(C(=O)O)c(Cc3cccc(C(=O)O)c3)c(=O)c3cc(OCC(C)C)ccc31)OCO2`: the IC50 was found to be 1980 nM.
Same read-out and setting: next, `CCCOc1ccc2c(c1)c(=O)c(Cc1cccc(C(=O)O)c1)c(C(=O)O)n2Cc1cc2c(cc1CC)OCO2`: 913 nM.
In turn, `CCc1cc2c(cc1Cn1c(C(=O)O)c(Cc3cccc(C(=O)O)c3)c(=O)c3cc(OCCCO)ccc31)OCO2` displayed an IC50 of 4390 nM.
On the same count and under the same terms, next, `CCc1cc2c(cc1Cn1c(C(=O)O)c(Cc3cccc(C(=O)O)c3)c(=O)c3ccccc31)OCO2`: 571 nM.
On the same count and under the same terms, the result for `C=CCOc1ccc2c(c1)c(=O)c(Cc1cccc(C(=O)O)c1)c(C(=O)O)n2Cc1cc2c(cc1CC)OCO2` reads 1130 nM.

Tested on in a further test: not listed separately
The test can be described thus: Selectivity ratio, ratio of IC50 for ETB receptor to IC50 for ETA receptor.
Conditions: not given
For the molecule `CCc1cc2c(cc1Cn1c(C(=O)O)c(Cc3cccc(C(=O)O)c3)c(=O)c3cc(OCC(=O)O)ccc31)OCO2`, the Ratio IC50 stood at 5.
For the molecule `CCCCOc1ccc2c(c1)c(=O)c(Cc1cccc(C(=O)O)c1)c(C(=O)O)n2Cc1cc2c(cc1CC)OCO2`, the Ratio IC50 was found to be 381.
For the molecule `CCc1cc2c(cc1Cn1c(C(=O)O)c(Cc3cccc(C(=O)O)c3)c(=O)c3cc(OC(C)C)ccc31)OCO2`, the Ratio IC50 was 50.
For `CCc1cc2c(cc1Cn1c(C(=O)O)c(Cc3cccc(C(=O)O)c3)c(=O)c3cc(OCOC)ccc31)OCO2`, the Ratio IC50 is 43.
On the same count and under the same terms, the result for `CCOc1ccc2c(c1)c(=O)c(Cc1cccc(C(=O)O)c1)c(C(=O)O)n2Cc1cc2c(cc1CC)OCO2` reads 473.
On the same count and under the same terms, the result for `CCc1cc2c(cc1Cn1c(C(=O)O)c(Cc3cccc(C(=O)O)c3)c(=O)c3cc(O)ccc31)OCO2` reads 399; that for `CCc1cc2c(cc1Cn1c(C(=O)O)c(Cc3cccc(C(=O)O)c3)c(=O)c3cc(OCC(C)C)ccc31)OCO2`, 315.
`CCCOc1ccc2c(c1)c(=O)c(Cc1cccc(C(=O)O)c1)c(C(=O)O)n2Cc1cc2c(cc1CC)OCO2`: the Ratio IC50 came out at 8300.
Same read-out and setting: the result for `CCc1cc2c(cc1Cn1c(C(=O)O)c(Cc3cccc(C(=O)O)c3)c(=O)c3cc(OCCCO)ccc31)OCO2` reads 593; that for `CCc1cc2c(cc1Cn1c(C(=O)O)c(Cc3cccc(C(=O)O)c3)c(=O)c3ccccc31)OCO2`, 827; that for `C=CCOc1ccc2c(c1)c(=O)c(Cc1cccc(C(=O)O)c1)c(C(=O)O)n2Cc1cc2c(cc1CC)OCO2`, 30.

For the next test, the system named is Hamster. The test can be described thus: Antiinflammatory activity against LPS-induced lung inflammation in hamster model assessed as reduction in bronchoalveolar lavage fluid leukocytes. The following applies: Cricetinae. The test is classed as functional, organism-based.
As for `CCc1cc2c(cc1Cn1c(C(=O)O)c(Cc3cccc(C(=O)O)c3)c(=O)c3cc(O)ccc31)OCO2`, the inhibition entry was “Active”.

In another test the test system is Hamster. The test can be described thus: Antiinflammatory activity against ET1-induced lung inflammation in hamster model assessed as reduction in bronchoalveolar lavage fluid leukocytes. The test is classed as functional, organism-based. Particulars: Cricetinae.
As for `CCc1cc2c(cc1Cn1c(C(=O)O)c(Cc3cccc(C(=O)O)c3)c(=O)c3cc(O)ccc31)OCO2`, the inhibition entry was “Active”.

The record behind these values is ChEMBL document CHEMBL1268959, “Synthesis and pharmacological activity of 1,3,6-trisubstituted-4-oxo-1,4-dihydroquinoline-2-carboxylic acids as selective ET(A) antagonists” (Bioorg Med Chem Lett, 2010).
